Source: ChEMBL document CHEMBL1142102, “Cytotoxic germacrane-type sesquiterpenes, pimarane-type diterpenes, and a naphthalene derivative from Wollastonia biflora” (J Nat Prod, 2007)
pIC50: −log10 of the molar value.

Assay: Cytotoxicity against human BEL-7402 cells after 72 hrs by SRB assay
Assay type: cell-based
Settings: Bel-7402, 72 h
Compound `C=C(C)C(=O)O[C@@H]1C[C@H](CO)CC/C=C(/CO)C[C@H]2OC(=O)C(=C)[C@H]12` has a pIC50 of 5.76.
Compound `C=C(C)C(=O)O[C@@H]1C[C@H](CO)CC/C=C(/C=O)C[C@H]2OC(=O)C(=C)[C@H]12` has a pIC50 of 5.82.
Compound `C=C1C(=O)O[C@@H]2C/C(CO)=C\CC[C@@H](CO)C[C@@H](OC(=O)/C(C)=C\C)[C@@H]12` has a pIC50 of 5.52.
